Patent US11559517B2, “Promotion of epithelial repair” (Telethon Kids Institute, priority 2018, dated 2023)
“Also recorded” adds a separate entry of the source.

Assays:
Type in all cases: cell-based, human
[1] = test system: pAEC from asthmatic children; assay: Scratch wound repair assay (wound closure), pAEC from asthmatic children; conditions: for accelerated repair compared to DMSO vehicle: 10 μM, 48 hours treatment post wounding; for promotion of pAEC repair relative to celecoxib: screen at 10 μM, cohort not given
Procedure: (§1) Two in vitro scratch wound models were used. […] Wound closure was calculated through image analysis by the accompanying live-cell imaging system (Essen Bioscience, Ann Arbor, Mich., USA).
(§2) To assess in vitro wound repair kinetics, linear scratch wounds were created using a commercial monolayer wounding kit. Once confluent, cell cultures were placed in starvation media (BEGM™ without epidermal growth factor) for about 24 hours prior to wounding. At the time of wounding, cell cultures were treated with compound dilution (10 μM), DMSO vehicle (0.05% v/v) or untreated. Wound closure rates were calculated through image analysis by the accompanying live-cell imaging system (Essen Bioscience, Ann Arbor, Mich., USA).

[2] = test system: pAEC from non-asthmatic children; assay: MTS cell viability assay, pAEC from non-asthmatic children
Procedure: (§3) Cell viability was assessed using a 3-[4,5-dimethylthiazol-2yl]-5-[3-carboxymethoxyphenyl]-2-[4-sulfophenyl]-2H-tetrazolium inner salt (MTS) assay (Promega).
Cell viability was assessed using a 3-[4,5-dimethylthiazol-2yl]-5-[3-carboxymethoxyphenyl]-2-[4-sulfophenyl]-2H-tetrazolium inner salt (MTS) assay (Promega, Madison, Wis., USA). […]

[3] = test system: pAEC from asthmatic children; assay: MTS cell viability assay, pAEC from asthmatic children
Procedure: as §3
Cell viability was assessed using a 3-[4,5-dimethylthiazol-2yl]-5-[3-carboxymethoxyphenyl]-2-[4-sulfophenyl]-2H-tetrazolium inner salt (MTS) assay (Promega, Madison, Wis., USA). Once confluent, cell cultures were treated with 10 μM compound, DMSO vehicle (0.05% v/v) or untreated for 48 hours.

integrin β1 [4] = assay: On-Cell Western assay of integrin β1 cell membrane expression, pAEC from non-asthmatic children; conditions: MK2206; 12 h treatment
Procedure: (§4) Cells were plated at 1.2×10^5 cells/cm^2 onto 96-well plates precoated with fibronectin ([…]) and maintained as described earlier. Briefly, following relevant treatments and controls, confluent cell monolayers were fixed with 10% (v/v) NBF for 20 minutes at room temperature and then either permeabilized with 0.1% (v/v) Triton X-100 or incubated with PBS for 25 minutes. Cells were blocked for 90 min at room temperature with the Odyssey® blocking buffer (PBS) (LI-COR Biosciences). Cells were then stained with rabbit anti-human integrin α5 (1:100; clone EPR7854, Abcam), mouse anti-human integrin β1 (1:1000; clone P5D2, Abcam), rabbit anti-human phospho-Akt (Ser473) (1:100; clone D9E, Abcam) or mouse anti-human total Akt (pan) (1:100; clone 40D4, Abcam) for 24 hours at 4° C. Antibody binding was determined using IRDye 800 CW-conjugated goat anti-rabbit IgG (1:800; 925-32211, LI-COR Biosciences) and goat anti-mouse IgG (1:800; 925-32210, LI-COR Biosciences), as well as DRAQ5 (1:10000; DR50200, BioStatus Limited) and Sapphire700 (1:1000; 928-40022, LI-COR Biosciences) for cell number normalization, for 1 hour at RT with gentle shaking in the dark. Specific antibody staining for protein expression was then immediately visualized and quantified using an infrared imaging system (LI-COR Biosciences). […]

Akt (serine residue 473) [5] = assay: In-Cell Western assay of Akt phosphorylation, pAEC from non-asthmatic children; conditions: concentration series (Wortmannin 0.01-10 μM, MK2206 0.01-5 μM); 12 h and 48 h post treatment
Procedure: (§5) Cells were plated at 1.2×10^5 cells/cm^2 onto 96-well plates precoated with fibronectin ([…]) and maintained as described earlier. Briefly, following relevant treatments and controls, confluent cell monolayers were fixed with 10% (v/v) NBF for 20 minutes at room temperature and then either permeabilized with 0.1% (v/v) Triton X-100 or incubated with PBS for 25 minutes. Cells were blocked for 90 min at room temperature with the Odyssey® blocking buffer (PBS) (LI-COR Biosciences). Cells were then stained with rabbit anti-human integrin α5 (1:100; clone EPR7854, Abcam), mouse anti-human integrin β1 (1:1000; clone P5D2, Abcam), rabbit anti-human phospho-Akt (Ser473) (1:100; clone D9E, Abcam) or mouse anti-human total Akt (pan) (1:100; clone 40D4, Abcam) for 24 hours at 4° C. Antibody binding was determined using IRDye 800 CW-conjugated goat anti-rabbit IgG (1:800; 925-32211, LI-COR Biosciences) and goat anti-mouse IgG (1:800; 925-32210, LI-COR Biosciences), as well as DRAQ5 (1:10000; DR50200, BioStatus Limited) and Sapphire700 (1:1000; 928-40022, LI-COR Biosciences) for cell number normalization, for 1 hour at RT with gentle shaking in the dark. Specific antibody staining for protein expression was then immediately visualized and quantified using an infrared imaging system (LI-COR Biosciences).

integrin α5 [6] = assay: On-Cell Western assay of integrin α5 cell membrane expression, pAEC from non-asthmatic children
Procedure: as §5
After this, cells were washed in 1× phosphate-buffered saline (PBS) and incubated with IRDye-conjugated secondary antibody (1:800 goat anti-rabbit and goat anti-mouse IgG, LI-COR Biosciences, Lincoln, Nebr., USA) containing DRAQ5 (1:10000, BioStatus Limited, Shepshed, United Kingdom) and Sapphire700 (1:1000, LI-COR Biosciences, Lincoln, Nebr., USA) for 1 hour at RT with gentle shaking in a dark room. Cells were then washed for an additional five times in PBS. Specific antibody staining for protein expression was then immediately visualized using an infrared imaging system (LI-COR Biosciences, Lincoln, Nebr., USA

[7] = test system: leading edge pAEC from non-asthmatic children; assay: Leading edge cell tracking after scratch wounding, pAEC from non-asthmatic children; conditions: Wortmannin 0.01-10 μM, MK2206 0.01-5 μM
Procedure: (§6) Manual Tracking, an ImageJ2 plugin publicly available was utilized for its capacity to manually track cells in two dimensions, the x and y planes. […] The selected cells were tracked over the first 12 h post wounding, where this procedure generated x and y coordinates for the position of the nucleus of each tracked cell at each time point. The x,y coordinates of the tracked cells were exported in a tab delimited format and all tracks were transformed to migrate up towards the y-axis. Graphical representation and analysis of the cell migration parameters was performed using the Chemotaxis and Migration Tool 2.0 (Ibidi®, Martinsried, Bayern, Germany). […] Migration parameters of cell tracks were then quantified including; (1) distance migrated (μm) which represented the displacement of a cell from the start to its endpoint, (2) velocity (μm/min), which is a function of displacement overtime, and (3) directionality (AU), which represents a measurement of the directness or straightness of a cell trajectory and was calculated as a ratio of the cell displacement over the accumulated distance migrated. […] Since directionality is not a direct measure of chemotaxis, the determined forward migration index (FMI) (AU) was then utilized to represent the efficiency of the leading edge cells to migrate towards the center of the wounded area. […]

[8] = test system: pAEC from non-asthmatic children; assay: Scratch wound repair assay (wound closure), pAEC from non-asthmatic children; conditions: treated at time of scratch wounding; Wortmannin 0.01-10 μM, MK2206 0.01-5 μM
Procedure: as §1, §2

Akt (serine residue 473) [9] = assay: In-Cell Western assay of Akt phosphorylation, pAEC from asthmatic children; conditions: SC79 0.5-20 μM; 12 h and 48 h post treatment
Procedure: as §5

integrin β1 [10] = assay: On-Cell Western assay of integrin β1 cell membrane expression, pAEC from asthmatic children; conditions: 0.5, 2 and 5 μM SC79; 12 h and 48 h
Procedure: as §4

[11] = test system: leading edge pAEC from asthmatic children; assay: Leading edge cell tracking after scratch wounding, pAEC from asthmatic children; conditions: SC79 0.5-20 μM
Procedure: as §6

integrin α5 [12] = assay: On-Cell Western assay of integrin α5 cell membrane expression, pAEC from asthmatic children; conditions: 0.5, 2 and 5 μM SC79; 12 h and 48 h
Procedure: as §4

[13] = test system: pAEC from asthmatic children; assay: Scratch wound repair assay (wound closure), pAEC from asthmatic children; conditions: SC79 0.5-20 μM at time of scratch wounding
[14] = 10 μM, 48 hours, change of less than or equal to 20% relative to DMSO vehicle considered non-cytotoxic
[15] = 0.01, 0.1, 1 μM (all concentrations bar the highest)

NS(=O)(=O)c1ccccc1 [Compound C2, Benzenesulfonamide]
accelerated repair compared to DMSO vehicle [1]: no improvement

Cc1ccc(-c2cc(C(F)(F)F)nn2-c2ccc(S(N)(=O)=O)cc2)cc1 [Compound C3, Celecoxib]
cell viability (MTS) [2, 14]: did not display any change in cell viability | cell viability (MTS) [3, 14]: did not display any change in cell viability | cell viability (MTS) ([3]; 0.01, 0.1, 1, 10 μM, listed as Celecoxib): did not cause significant cytotoxicity | cell viability (MTS) ([3]; 0.01, 0.1, 1, 10 μM, listed as celecoxib): not cytotoxic

Cc1ccc(C)c(-c2cc(C(F)(F)F)nn2-c2ccc(S(N)(=O)=O)cc2)c1 [Compound C6, 2,5-Dimethyl-Celecoxib]
promotion of pAEC repair relative to celecoxib [1]: comparable efficacy

CC(=NNc1ccc(S(N)(=O)=O)cc1)c1ccc(C)cc1 [Compound C11]
accelerated repair compared to DMSO vehicle [1]: no improvement

CN1C(C(=O)Nc2ccccn2)=C(O)c2ccccc2S1(=O)=O [Compound C13, Piroxicam]
accelerated repair compared to DMSO vehicle [1]: no improvement

O=C(O)c1cc(/N=N/c2ccc(S(=O)(=O)Nc3ccccn3)cc2)ccc1O [Compound C15, Sulfasalazine]
accelerated repair compared to DMSO vehicle [1]: no improvement

Nc1ccc(S(N)(=O)=O)cc1 [Compound C17, Sulfanilamide]
accelerated repair compared to DMSO vehicle [1]: no improvement

Cc1ccc(-c2cc(C(F)(F)F)n[nH]2)cc1 [Compound C19, 3-Trifluoromethy1-5-(p-tolyl)-1H-pyrazole]
accelerated repair compared to DMSO vehicle [1]: no improvement

CS(=O)(=O)c1ccc(-n2nc(C(F)(F)F)cc2-c2ccc(F)cc2)cc1 [Compound C22, 5-(4-fluorophenyl)-1-[4-(methylsulfonyl)phenyl]-3-(trifluoromethyl)-1H-pyrazole]
promotion of pAEC repair relative to celecoxib [1]: to a greater degree than celecoxib

NC1(c2ccc(-c3nc4ccn5c(=O)[nH]nc5c4cc3-c3ccccc3)cc2)CCC1 [MK2206]
cell viability (MTS) [2, 15]: did not cause significant cytotoxicity | integrin β1 cell membrane expression (integrin β1 [4]): did not have a significant effect | activation/phosphorylation of Akt (Ser473) (Akt (serine residue 473) [5]): significant inhibition; also recorded: inhibited activation of Akt | integrin α5 cell membrane expression (integrin α5 [6]; 1 μM MK2206, 48 h): significant inhibition; also recorded: Significant reduction | integrin α5 cell membrane expression (integrin α5 [6]; MK2206, concentration-dependent, 12 h treatment): concentration-dependent inhibition; also recorded: significant reduction of integrin α5 | integrin α5 cell membrane expression (integrin α5 [6]; lower concentrations of MK2206 (below 1 μM), 48 h): not with the lower concentrations | leading edge cell migration (distance migrated, velocity, directionality, yFMI) [7]: significant inhibition; also recorded: inhibited distance migrated, velocity, directionality and centrality (yFMI) | wound closure rates (effect in words) [8]: significant inhibition; also recorded: concentration-dependent reduction in wound closure rates

CCOC(=O)C1=C(N)Oc2ccc(Cl)cc2C1C(C#N)C(=O)OCC (stereo not drawn) [SC79, 2-Amino-6-chloro-α-cyano-3-(ethoxycarbonyl)-4H-1-benzopyran-4-acetic acid ethyl ester]
phosphorylation of Akt (Ser473) (Akt (serine residue 473) [9]): augment Akt signaling in a concentration-dependent manner; also recorded: resulted in phosphorylation of Akt | integrin β1 cell membrane expression (integrin β1 [10]): restored their integrin α5 and β1 expression to equivalent levels to those of non-asthmatic children; also recorded: Significant activation | leading edge cell migration (distance migrated, velocity, directionality, yFMI) [11]: stimulated leading edge cell migration; also recorded: stimulated distance migrated, velocity, directionality and centrality (yFMI) | cell viability (MTS) ([3]; SC79 0.5, 2, 5, 10, 20 μM): did not alter cell viability; also recorded: did not cause significant cytotoxicity | integrin α5 cell membrane expression (integrin α5 [12]): restored their integrin α5 and β1 expression to equivalent levels to those of non-asthmatic children; also recorded: Significant activation | wound closure rates (effect in words) [13]: significantly enhanced wound closure; also recorded: concentration-dependent increase in wound closure rates

COC[C@H]1OC(=O)c2coc3c2[C@@]1(C)C1=C(C3=O)[C@@H]2CCC(=O)[C@@]2(C)C[C@H]1OC(C)=O [Wortmannin]
cell viability (MTS) ([2]; 10 μM Wortmannin): significant loss of viability | cell viability (MTS) [2, 15]: did not have a significant cytotoxic effect; also recorded: did not cause significant cytotoxicity

Cc1ccc(C)c(-c2cc(C(F)(F)F)nn2-c2ccc(S(N)(=O)=O)cc2)c1 [dimethyl-Celecoxib]
cell viability (MTS) ([3]; 0.01, 0.1, 1, 10 μM): did not cause significant cytotoxicity | cell viability (MTS) ([3]; 0.01, 0.1, 1, 10 μM, listed as dimethyl-celecoxib): not cytotoxic
